In series [1] the test system is U87 cells. In words: LDH leakage assay (membrane integrity). The format is cell-based, human. The following applies: FAM-labelled peptides, up to 20 µM, 48h, compared to 0.2% of Triton. How it is done: Membrane integrity was evaluated using LDH leakage assay (SIGMA-ALDRICH™ St. Louise, MO, USA), which measures lactate dehydrogenase release. Briefly, 1×10^4 cells were seeded 24h in 96-well plates before treatment with the peptides or peptide-drug conjugates, which was conducted in complete medium for 48h. Thereafter, LDH leakage was assessed according to the manufacturer's protocol. Untreated cells were defined as no leakage and 100% leakage was defined as total LDH release by lysing cells in 0.2% Triton X-100 in HKR buffer.
(§1) All figures are presented as mean ± SEM. The cell uptake data represent three independent experiments performed in duplicate. For toxicity measurements, a decrease in viability was considered significant at p <.001 using ANOVA Dunnett's multiple comparison test.

Series [2] concerns U87 cells. In words: MTS cell viability (proliferation) assay. The format is cell-based, human. The following applies: FAM-labelled peptides, up to 20 µM, 24h. Here is the method:
Long-term toxicity was evaluated using an MTS proliferation assay (Promega, Madison, WI, USA). The MTS assay measures the activity of mitochondrial dehydrogenases to convert tetrazolium salts into formazan. Briefly, 1×10^4 cells were seeded 24h in 96-well plates before treatment with the peptides or peptide-drug conjugates, which was conducted in complete medium for 24h. Thereafter, MTS proliferation assay was used according to the manufacturer's protocol. Untreated cells were defined as 100% viable.
as §1

In series [3] the test system is human glioma cells. Kind of series: Cellular uptake by flow cytometry (FACS). Particulars: 30 min incubation (Figure 4). The format is cell-based. Here is the method: U87, HEK and Hela cells (5×10^4) were seeded 24 h prior to experiments into 24-well plates. Cells were incubated for 30 min in complete media after treatment with the peptide constructs. Thereafter, cells were washed four times with PBS and once with trypsin, suspended in ice-cold PBS and flow cytometry analysis was carried out with a BD LSR II flow cytometer (BD Biosciences, San Jose, CA, USA) equipped with a 488 nm argon laser and analyzed with FACSDiva software. The filter settings for excitation and emission were 480/530 nm bandpass (FL1) for FITC. Live cells were gated by forward/side scattering from a total of 10000 events.
(§2) The cellular uptake of the chimeric peptides gHoPe2 and gHoPe3 in U87 cells, using confocal microscopy and flow cytometry is depicted in Figures 3 and 4, respectively.
(In general: A flow cytometer gives signals particle by particle.)

Series [4] concerns human glioma cells (U87). Kind of series: Cellular internalization by confocal microscopy. The format is cell-based. Particulars: 10 µM, 30 min incubation (Figure 3). Here is the method:
(§3) U87 cells (1×10^4) were seeded in Lab-Tek® 8-well chamber slides to reach 50% confluence one day prior to experimentation. After 30 min of incubation with the peptide constructs in complete medium at 37°C, cells were washed four times with PBS, followed by the addition of trypan blue (0.1 %) in OptiMEM and examined using Olympus IX81 inverted microscope equipped with FluoView 1000 confocal system using a 60x water-immersion and 100x oil-immersion objectives and excitation at 488 nm (fluorescein). For the membrane association experiments the cells were incubated with FAM-labeled peptide for 30 min at 37°C in complete medium. After the incubation period, cells were washed once with PBS and re-suspended in fresh OptiMEM medium.
as §2

For series [5], the system named is intracranial glioblastoma. Kind of series: Biodistribution of FAM-labelled peptides, intracranial tumour model. The following applies: i.v.; for uptake in lungs, heart, spleen, muscle and skin: animals with intracranial tumours, 3 h (Figure 8); for localization in intracranial tumour: 3 h before tissue collection, FAM fluorescence (Figures 6, 7). The format is in vivo, mice. Here is the method:
(§4) Localization of the peptide vectors was assessed postmortem after injecting FAM-labeled peptides in homozygous female nude mice (C.Cg/AnNTac-Foxn1nu, Taconic), bearing tumor xenografts either intracranially or subcutaneously. 8×10^5 U87 cells were resuspended in 100 µl (s.c tumor model) or in 5 µl (intracranial tumor model) of fresh DMEM medium, without serum and antibiotics. The xenografting was performed by implanting the cell suspension subcutaneously or intracranially into one of the striatums (stereotaxic coordinates A=+1, L=+2, V=+3.5). At the appearance of the first signs of tumor growth (for the subcutaneous tumors: tumor size of approx 300 mm^3; for the intracranial tumors: the first sign is usually weight loss), mice were injected i.v. (via tail vein) with the peptide constructs. For the biodistribution, 100 µl of 200 µM FAM-labeled peptide suspension (in saline) was used. This represents a dose of 4 mg/kg for a mouse of 20 g. At 3h post-injection, the animals were anesthetized and intracardially perfused with 50 ml of PBS, followed by 50 ml of fixation solution (4% w/v paraformaldehyde in PBS, pH 7.4). Tissues were collected, postfixed for 2h in the same fixation solution, cryoprotected in sucrose (10% for 24h, followed by 30% for 1 week, at 4°C), snap frozen in 2-methylbutane (AppliChem) kept on dry ice. The tissues were cut on a cryostat with a thickness of 10-15 µm, counterstained with DAPI (AppliChem) and mounted using Vectashield (Vector Labs) mounting media.
(§5) The biodistribution of FAM-labeled gHoPe2 was determined in two mouse tumour models. FAM-labeled gHo and gHoPe2 were injected 3h before tissue collection. The circulation time of 3 h was chosen from initial pilot experiments with 1 h, 3h, 6h and 24h circulation times, where the highest fluorescence in the tumor occurred at 3h.
Secondly, biodistribution of FAM-labeled gHo and gHoPe2, as well as FAM-labeled pVEC and gHoPe3 was assessed in a mouse model of intracranial glioblastoma. To estimate the general distribution of gHoPe2 within the glioma-containing brain, the whole coronal section was reconstructed from single microscopic images.

Series [6] relates to subcutaneous U87 tumor. Kind of series: Biodistribution of FAM-labelled peptides, subcutaneous tumour model. The following applies: for localization in tumor tissue: i.v., 3 h before tissue collection, FAM fluorescence of cryosections (Figure 5). The format is in vivo, mice. Here is the method:
as §4, §5
Firstly, a mouse model of subcutaneous U87 tumor was used. […] We detected no FAM-labeled gHo in tumor tissue and none of the peptides in the (intact) brain tissue, the kidney, and liver.

Series [7] concerns HeLa cells. In words: Confocal microscopy, association of FAM-labelled targeting peptide with cells. The format is cell-based. The following applies: 20 µM, 30 minutes. Here is the method:
(§6) The human embryonic kidney 293 cell line (HEK 293) and human glioblastoma-astrocytoma, epithelial-like cell line U87 MG (American Type Culture Collection via LGC, Sweden) and cervical cancer HeLa cells were cultured in Dulbecco's Modified Eagle Medium (DMEM) with L-glutamine. Medium was supplemented with 10% FBS, sodium pyruvate (1 mM), penicillin (100 U/ml), streptomycin (100 µg/ml) and 1% nonessential amino acids (further denoted as complete medium) (PAA Laboratories GmbH, Austria). Cell cultures were cultivated at 37°C in a humidified 5% CO2 incubator.
as §3, with “OptiMEM medium. […]” for “OptiMEM medium.”

The test system of series [8] is U87 glioma cells. Described as above. The format is cell-based, human. Here is the method: as §6, §3
(§7) To confirm binding of the targeting peptide with glioma cells, gHo peptide was labeled with fluorescent marker FAM (see the composition in Table 1) and incubated with U87 glioma cells as well as with two non-neuronal cell lines, HeLa and HEK, for 30 minutes at the room temperature, followed by mild washing of the cells.

Series [9] has as its system HEK cells. Described as above. The format is cell-based, human. The following applies: 20 µM, 30 minutes. How it is done:
as §6, §3, §7

The subject of series [10] is subcutaneous U87 tumors. Kind of series: Antitumour effect in vivo, tumour growth. Also on record: species or system mice. The following applies: 8.3 mg/kg (369 µM, 100 µl) i.v. twice a week; Tukey post-hoc p<.05 (Figure 13). Here is the method:
Localization of the peptide vectors was assessed postmortem after injecting FAM-labeled peptides in homozygous female nude mice (C.Cg/AnNTac-Foxn1nu, Taconic), bearing tumor xenografts either intracranially or subcutaneously. 8×10^5 U87 cells were resuspended in 100 µl (s.c tumor model) or in 5 µl (intracranial tumor model) of fresh DMEM medium, without serum and antibiotics. The xenografting was performed by implanting the cell suspension subcutaneously or intracranially into one of the striatums (stereotaxic coordinates A=+1, L=+2, V=+3.5). At the appearance of the first signs of tumor growth (for the subcutaneous tumors: tumor size of approx 300 mm^3; for the intracranial tumors: the first sign is usually weight loss), mice were injected i.v. (via tail vein) with the peptide constructs. For the biodistribution, 100 µl of 200 µM FAM-labeled peptide suspension (in saline) was used. This represents a dose of 4 mg/kg for a mouse of 20 g. […]
The tumor treatments were performed using 1 mg/kg doxorubicin (369 µM, 100 µl, for an animal of 20 g) and an equivalent dose (8.3 mg/kg) of dox-gHoPe2 (369 µM, 100 µl) i.v. twice a week. The subcutaneous tumor dimensions were measured using calibre; tumor volume was calculated as (length × width^2)/2.
The efficacy of dox-gHoPe2 was assessed in the model of subcutaneous U87 tumors. […]

Entries after “also recorded” stand apart in the source; their conditions may differ. Ends that are not written are not given here. FAM = 5(6)-carboxyfluorescein

On to “LLIILRRRIRKQAHAHSK-NH2 [FAM-pVEC] ({FAM}-LLIILRRRIRKQAHAHSK-NH2) [pVEC N-terminally labelled with 5(6)-carboxyfluorescein, reference compound]”, for which, in [1], the “LDH leakage (membrane leakage)” value is reported as “did not affect cell viability”. Besides, the “cell viability (MTS)” value in series [2] is given as “did not affect cell viability”. Moreover, the cellular uptake result in series [3] was “highest”. The Cellular internalization result in series [4] is “exhibited cellular uptake of varying degrees”.

As to “LLIILRRRIRKQAHAHSK-NH2 [pVEC, 18-amino acid cell-penetrating peptide derived from murine vascular endothelial-cadherin, reference compound]”, the “LDH leakage (membrane leakage)” value in series [1] is “did not induce any significant membrane leakage”. In addition, the “cell viability (MTS)” value in series [2] was “did not induce any toxic effects”. The Cellular internalization entry in series [4] is recorded as “internalized very efficiently”.

On to “LLIILRRRIRKQAHAHSK-NHQQQNPHQPPM-NH2 [FAM-gHoPe2]”, for which the “uptake in lungs, heart, spleen, muscle and skin” value in [5] is listed as “No uptake”. Also, the “presence in adjacent intact brain, kidney and liver” value in series [5] (3 h (Figure 7)) is “not”. In addition, the “localization in intracranial tumour” value in series [5] is recorded as “localizes in tumours”; in series [5] (listed as FAM-labelled gHoPe2) it was “global FAM localization in the tumour area”; in [5] (listed as gHoPe2) it was “can be seen in the tumor area; also recorded: specific localization”. Moreover, the “localization in the adjacent intact brain” value in series [5] (whole coronal section, 3 h (Figure 6)) was “not”. The “LDH leakage (membrane leakage)” value is on record as “did not affect cell viability” in series [1] and “did not induce any significant membrane leakage” in series [1] (listed as gHoPe2). In series [6], the “localization in tumor tissue” value was “localizes in tumours; also recorded: homing”. In addition, the “circulation time of the highest fluorescence in the tumor” value in [6] (initial pilot experiments with 1 h, 3h, 6h and 24h circulation times, tumour model not stated) was determined as 3 h. The “cell viability (MTS)” value is on record as “did not affect cell viability” in series [2] and “did not induce any toxic effects” in [2] (listed as gHoPe2). For the same substance, the cellular uptake entry in series [3] was “highest; also recorded: significantly differed from the uptake values of FAM-gHoPe3 (main effect p<.01, Tukey post hoc) and FAM-gHo (p<.001)”. For the same substance, the Cellular internalization entry in [4] is “exhibited cellular uptake of varying degrees”.

Consider “NHQQQNPHQPPM-LLIILRRRIRKQAHAHSK-NH2 [FAM-gHoPe3]”, for which the “LDH leakage (membrane leakage)” value was “did not affect cell viability” in [1] and “did not induce any significant membrane leakage” in series [1] (listed as gHoPe3). The “cell viability (MTS)” value in series [2] is “did not affect cell viability”; in series [2] (listed as gHoPe3) it was “did not induce any toxic effects”. Besides, the Cellular internalization result in [4] is recorded as “exhibited cellular uptake of varying degrees; also recorded: internalized, but to a lesser extent”.

For “NHQQQNPHQPPM-NH2 [FAM-gHo] ({FAM}-NHQQQNPHQPPM-NH2; also: FAM label, place not given here) [gHo N-terminally labelled with 5(6)-carboxyfluorescein]”, the “localization in tumor tissue” value in series [6] is listed as “detected no”. Also, the Cellular internalization entry in [4] is reported as “no uptake”.

Consider “NHQQQNPHQPPM-NH2 [gHo, glioma-homing targeting peptide]”, for which, in [5], the “uptake in lungs, heart, spleen, muscle and skin” value is reported as “No uptake”; the “localization in intracranial tumour” value is “not”. Further, the “LDH leakage (membrane leakage)” value in series [1] is given as “did not induce any significant membrane leakage”. Besides, in series [3], the cellular uptake result is given as “did not internalize”. In series [7], the “binding to HeLa cells” value was “not and did not bind”. Moreover, the Cellular internalization entry in series [4] was “did not internalize”. In [8] (20 µM (Figure 2)), the “Association of the targeting peptide gHo with glioma cells (U87)” value was “associated”. For the same substance, in series [8] (FAM-labelled peptide, all tested concentrations 1-20 µM, 30 minutes, mild washing), the “association of gHo with U87” value is listed as “confirmed association”. The “binding to HEK cells” value in [9] is “not and did not bind”.

As to “XCLLIILRRRIRKQAHAHSK-NHQQQNPHQPPM-NH2 [Dox-gHoPe2]”, the “tumor size versus untreated group” value in [10] was “significantly smaller”.
